Test results from patent US20180200257A1, “METHODS FOR THE TREATMENT OF INFLAMMATORY DISORDERS” (Galapagos NV, priority 2015, published 2018).

System: Subjects With Active Crohn's Disease With Evidence of Mucosal Ulceration
Test: Study 3 - Creatinine levels
Type: in vivo, human
Settings: for Study 3 - Creatinine Mean CFB / Study 3 - Creatinine Mean percentage CFB: 10 weeks results, 200 mg q.d.
From the text: Double-Blind, Randomized, Placebo-Controlled, Multi-Centre Study to Investigate the Efficacy and Safety of Compound 1 in Subjects With Active Crohn's Disease With Evidence of Mucosal Ulceration. This is a double-blind, randomized, placebo-controlled, multi-centre Phase 2 study to investigate the efficacy and safety of Compound 1 administered once daily for the treatment of active CD with evidence of mucosal ulceration. The pharmacokinetics (including a PK substudy) and pharmacodynamics of Compound 1 and metabolite in CD will also be characterised. A total of 180 eligible subjects will be randomized to receive Compound 1 or placebo in addition to their stable background treatment (eg, corticosteroids, aminosalicylates, or CD-related antibiotics). The study will consist of 2 parts, with total treatment duration of 20 weeks. Randomization in Part 1 will be stratified according the subject's previous anti-TNF exposure/response, CRP level at Screening, and oral corticosteroid use at visit Day −1. After the first 10 weeks of treatment in Part 1, patients will be re-randomized for Part 2 as shown in the diagram below and will be stratified according to the subject's clinical response, previous anti-TNF exposure/response, and oral corticosteroid use at visit Day -1. [table] Creatinine levels determination is available at Quest Diagnostics, Clinical Trials, Quest House, 125-135 Staines Road, Hounslow, Middlesex, TW3 3JB, United Kingdom under Catalogue n# 82565. For Study 3, the data are obtained at BARC Europe, 3B,Industrie Park, Zwijnaarde, B-9052 Ghent, Belgium. The Enzymatic method is based on the determination of sarcosine after conversion of creatinine with the aid of creatininase, creatinase, and sarcosine oxidase. The liberated hydrogen peroxide reacts with 4-aminophenazone and HTIB to form a quinone imine chromogen. The reaction is catalyzed by peroxidase. The color intensity is directly proportional to concentration of creatinine present and can be measured photometrically.

[1] = 200 mg q.d. continued to week 20 (N = 77), week 0
[2] = 200 mg q.d. continued to week 20 (N = 77), week 2
[3] = 200 mg q.d. continued to week 20 (N = 77), week 4
[4] = 200 mg q.d. continued to week 20 (N = 77), week 6
[5] = 200 mg q.d. continued to week 20 (N = 77), week 10
[6] = 200 mg q.d. continued to week 20 (N = 77), week 12
[7] = 200 mg q.d. continued to week 20 (N = 77), week 16
[8] = 200 mg q.d. continued to week 20 (N = 77), week 20
[9] = 200 mg q.d. week 0 to 10, to 100 mg q.d. week 10 to 20 (N = 30), week 0
[10] = 200 mg q.d. week 0 to 10, to 100 mg q.d. week 10 to 20 (N = 30), week 2
[11] = 200 mg q.d. week 0 to 10, to 100 mg q.d. week 10 to 20 (N = 30), week 4
[12] = 200 mg q.d. week 0 to 10, to 100 mg q.d. week 10 to 20 (N = 30), week 6
[13] = 200 mg q.d. week 0 to 10, to 100 mg q.d. week 10 to 20 (N = 30), week 10
[14] = 200 mg q.d. week 0 to 10, to 100 mg q.d. week 10 to 20 (N = 30), week 12
[15] = 200 mg q.d. week 0 to 10, to 100 mg q.d. week 10 to 20 (N = 30), week 16
[16] = 200 mg q.d. week 0 to 10, to 100 mg q.d. week 10 to 20 (N = 30), week 20
[17] = 200 mg q.d. week 0 to 10, to placebo week 10 to 20 (N = 23), week 0
[18] = 200 mg q.d. week 0 to 10, to placebo week 10 to 20 (N = 23), week 2
[19] = 200 mg q.d. week 0 to 10, to placebo week 10 to 20 (N = 23), week 4
[20] = 200 mg q.d. week 0 to 10, to placebo week 10 to 20 (N = 23), week 6
[21] = 200 mg q.d. week 0 to 10, to placebo week 10 to 20 (N = 23), week 10
[22] = 200 mg q.d. week 0 to 10, to placebo week 10 to 20 (N = 23), week 12
[23] = 200 mg q.d. week 0 to 10, to placebo week 10 to 20 (N = 23), week 16
[24] = 200 mg q.d. week 0 to 10, to placebo week 10 to 20 (N = 23), week 20
[25] = placebo week 0 to 10, to 100 mg q.d. week 10 to 20 (N = 22), week 12
[26] = placebo week 0 to 10, to 100 mg q.d. week 10 to 20 (N = 22), week 16
[27] = placebo week 0 to 10, to 100 mg q.d. week 10 to 20 (N = 22), week 20

## O=C(Nc1nc2cccc(-c3ccc(CN4CCS(=O)(=O)CC4)cc3)n2n1)C1CC1 [Compound 1, cyclopropanecarboxylic acid {5-[4-(1,1-dioxo-thiomorpholin-4-ylmethyl)-phenyl]-[1,2,4]triazolo[1,5-a]pyridin-2-yl}-amide]
[1]
  Creatinine Mean CFB: 0.0 µmol/L
  Creatinine Mean percentage CFB: 0.0%
[2]
  Creatinine Mean CFB: 2.22 µmol/L
  Creatinine Mean percentage CFB: 4.13%
[3]
  Creatinine Mean CFB: 3.93 µmol/L
  Creatinine Mean percentage CFB: 6.08%
[4]
  Creatinine Mean CFB: 2.51 µmol/L
  Creatinine Mean percentage CFB: 4.44%
[5]
  Creatinine Mean CFB: 6.00 µmol/L
  Creatinine Mean percentage CFB: 9.34%
[6]
  Creatinine Mean CFB: 4.02 µmol/L
  Creatinine Mean percentage CFB: 7.10%
[7]
  Creatinine Mean CFB: 1.81 µmol/L
  Creatinine Mean percentage CFB: 3.62%
[8]
  Creatinine Mean CFB: 3.20 µmol/L
  Creatinine Mean percentage CFB: 5.43%
[9]
  Creatinine Mean CFB: 0.0 µmol/L
  Creatinine Mean percentage CFB: 0.0%
[10]
  Creatinine Mean CFB: 3.36 µmol/L
  Creatinine Mean percentage CFB: 5.77%
[11]
  Creatinine Mean CFB: 4.98 µmol/L
  Creatinine Mean percentage CFB: 8.03%
[12]
  Creatinine Mean CFB: 4.00 µmol/L
  Creatinine Mean percentage CFB: 6.37%
[13]
  Creatinine Mean CFB: 6.48 µmol/L
  Creatinine Mean percentage CFB: 11.55%
[14]
  Creatinine Mean CFB: 2.92 µmol/L
  Creatinine Mean percentage CFB: 6.01%
[15]
  Creatinine Mean CFB: 4.89 µmol/L
  Creatinine Mean percentage CFB: 8.86%
[16]
  Creatinine Mean CFB: 3.43 µmol/L
  Creatinine Mean percentage CFB: 6.19%
[17]
  Creatinine Mean CFB: 0.0 µmol/L
  Creatinine Mean percentage CFB: 0.0%
[18]
  Creatinine Mean CFB: 1.95 µmol/L
  Creatinine Mean percentage CFB: 3.55%
[19]
  Creatinine Mean CFB: 3.83 µmol/L
  Creatinine Mean percentage CFB: 6.09%
[20]
  Creatinine Mean CFB: 2.15 µmol/L
  Creatinine Mean percentage CFB: 3.92%
[21]
  Creatinine Mean CFB: 5.88 µmol/L
  Creatinine Mean percentage CFB: 10.23%
[22]
  Creatinine Mean CFB: 1.84 µmol/L
  Creatinine Mean percentage CFB: 3.14%
[23]
  Creatinine Mean CFB: 0.47 µmol/L
  Creatinine Mean percentage CFB: 1.93%
[24]
  Creatinine Mean CFB: -0.26 µmol/L
  Creatinine Mean percentage CFB: 0.68%
Week 2
  Study 3 - Creatinine Mean CFB: 2.44 µM
  Study 3 - Creatinine Mean percentage CFB: 4.41%
Week 4
  Study 3 - Creatinine Mean CFB: 4.16 µM
  Study 3 - Creatinine Mean percentage CFB: 6.55%
Week 6
  Study 3 - Creatinine Mean CFB: 2.81 µM
  Study 3 - Creatinine Mean percentage CFB: 4.82%
Week 10
  Study 3 - Creatinine Mean CFB: 6.08 µM
  Study 3 - Creatinine Mean percentage CFB: 10.05%
[25]
  Creatinine Mean CFB: 3.09 µmol/L
  Creatinine Mean percentage CFB: 4.87%
[26]
  Creatinine Mean CFB: 4.33 µmol/L
  Creatinine Mean percentage CFB: 6.52%
[27]
  Creatinine Mean CFB: 3.11 µmol/L
  Creatinine Mean percentage CFB: 4.31%
